Laboratory results published in ChEMBL document CHEMBL1201862, “PubChem BioAssay data set” (2004).
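Five concentrations, 48 hours, 96-well plates. GI50 marks 50% less growth.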 Calls of active or inactive are those of the source. No stated cut-off is given here; in the data, active = GI50 up to about 1.1 µM and inactive = higher.

Key:
Assay in all cases: inhibition of tumour cell growth, NCI panel, 48 h
786-0 = system: 786-0
A498 = system: A498
A549 = system: A549
ACHN = system: ACHN
BT-549 = system: BT-549
CAKI-1 = system: CAKI-1
CCRF-CEM = system: CCRF-CEM
COLO 205 = system: COLO 205
DU-145 = system: DU-145
EKVX = system: EKVX
HCT-116 = system: HCT-116
HCT-15 = system: HCT-15
HL-60 = system: HL-60
HOP-62 = system: HOP-62
HOP-92 = system: HOP-92
HT-29 = system: HT-29
Hs-578T = system: Hs-578T
IGROV-1 = system: IGROV-1
K562 = system: K562
KM12 = system: KM12
LOX IMVI = system: LOX IMVI
M14 = system: M14
MCF7 = system: MCF7
MDA-MB-231 = system: MDA-MB-231
MDA-MB-435 = system: MDA-MB-435
MDA-N = system: MDA-N
MOLT-4 = system: MOLT-4
Malme-3M = system: Malme-3M
NCI-H226 = system: NCI-H226
NCI-H23 = system: NCI-H23
NCI-H460 = system: NCI-H460
NCI-H522 = system: NCI-H522
NCI/ADR-RES = system: NCI/ADR-RES
OVCAR-3 = system: OVCAR-3
OVCAR-4 = system: OVCAR-4
OVCAR-5 = system: OVCAR-5
OVCAR-8 = system: OVCAR-8
PC-3 = system: PC-3
RPMI-8226 = system: RPMI-8226
RXF 393 = system: RXF 393
SF-268 = system: SF-268
SF-295 = system: SF-295
SF-539 = system: SF-539
SK-MEL-28 = system: SK-MEL-28
SK-MEL-2 = system: SK-MEL-2
SK-MEL-5 = system: SK-MEL-5
SK-OV-3 = system: SK-OV-3
SN12C = system: SN12C
SNB-19 = system: SNB-19
SNB-75 = system: SNB-75
SR = system: SR
SW-620 = system: SW-620
T47D = system: T47D
TK-10 = system: TK-10
U-251 = system: U-251
UACC-257 = system: UACC-257
UACC-62 = system: UACC-62
UO-31 = system: UO-31
HCC 2998 = system: HCC 2998

Measured: GI50

O=[N+]([O-])c1cc(Cl)cc2c1nc(NCCO)c1ccccc12
4.36 µM: HCT-15
inactive: 786-0 6.81 µM | A498 10.3 µM | A549 2.95 µM | ACHN 6.43 µM | BT-549 15.4 µM | CAKI-1 16.5 µM | CCRF-CEM 16.7 µM | DU-145 1.69 µM | EKVX 6.21 µM | HCT-116 4.78 µM | HL-60 3.5 µM | HOP-62 7.24 µM | HOP-92 15.6 µM | Hs-578T 28.9 µM | IGROV-1 15.2 µM | K562 4.39 µM | KM12 9.53 µM | LOX IMVI 17.2 µM | M14 8.45 µM | MCF7 2.28 µM | MDA-MB-231 21.1 µM | MDA-MB-435 6.17 µM | MDA-N 4.62 µM | MOLT-4 3.78 µM | Malme-3M 12.3 µM | NCI-H226 13.5 µM | NCI-H23 9.75 µM | NCI-H460 2.58 µM | NCI-H522 13.6 µM | NCI/ADR-RES 23.5 µM | OVCAR-3 12.1 µM | OVCAR-4 13.5 µM | OVCAR-5 9.18 µM | OVCAR-8 16.3 µM | PC-3 4.97 µM | RPMI-8226 6.25 µM | RXF 393 6.46 µM | SF-268 23.8 µM | SF-295 13.1 µM | SF-539 20.9 µM | SK-MEL-28 39.5 µM | SK-MEL-2 10.5 µM | SK-MEL-5 1.35 µM | SK-OV-3 29.1 µM | SN12C 6.17 µM | SNB-19 16.1 µM | SNB-75 20.4 µM | SW-620 4.5 µM | T47D 20.3 µM | TK-10 10.8 µM | U-251 6.64 µM | UACC-257 13.8 µM | UACC-62 10.3 µM | UO-31 24.1 µM
active: COLO 205 0.0435 µM | HT-29 0.063 µM | SR 0.653 µM

CN1CCC(O)(C(C)(C)C)CC1
inactive: 786-0 > 100 µM | A549 > 100 µM | ACHN > 100 µM | BT-549 > 100 µM | CAKI-1 > 100 µM | CCRF-CEM > 100 µM | COLO 205 > 100 µM | DU-145 > 100 µM | EKVX > 100 µM | HCC 2998 > 100 µM | HCT-116 > 100 µM | HL-60 > 100 µM | HOP-62 > 100 µM | HT-29 > 100 µM | Hs-578T > 100 µM | IGROV-1 > 100 µM | K562 > 100 µM | KM12 > 100 µM | LOX IMVI > 100 µM | M14 > 100 µM | MCF7 > 100 µM | MDA-MB-231 > 100 µM | MDA-MB-435 > 100 µM | MDA-N > 100 µM | MOLT-4 > 100 µM | Malme-3M > 100 µM | NCI-H226 > 100 µM | NCI-H23 > 100 µM | NCI-H460 > 100 µM | NCI/ADR-RES > 100 µM | OVCAR-3 > 100 µM | OVCAR-4 > 100 µM | OVCAR-5 > 100 µM | OVCAR-8 > 100 µM | PC-3 > 100 µM | RPMI-8226 > 100 µM | RXF 393 > 100 µM | SF-268 > 100 µM | SF-295 > 100 µM | SK-MEL-28 > 100 µM | SK-MEL-2 > 100 µM | SK-MEL-5 > 100 µM | SK-OV-3 > 100 µM | SN12C > 100 µM | SNB-19 > 100 µM | SNB-75 > 100 µM | SR > 100 µM | SW-620 > 100 µM | T47D > 100 µM | TK-10 > 100 µM | U-251 > 100 µM | UACC-257 > 100 µM | UACC-62 > 100 µM | UO-31 > 100 µM
> 100 µM: HCT-15

COc1ccc(OC)c(-c2cn3c(n2)sc2ccccc23)c1
> 100 µM: HCT-15
inactive: 786-0 58.5 µM | A549 > 100 µM | ACHN > 100 µM | BT-549 > 100 µM | CAKI-1 > 100 µM | CCRF-CEM > 100 µM | COLO 205 > 100 µM | DU-145 > 100 µM | EKVX > 100 µM | HCT-116 > 100 µM | HL-60 > 100 µM | HOP-62 > 100 µM | HOP-92 15.8 µM | HT-29 8.26 µM | Hs-578T 39.7 µM | IGROV-1 > 100 µM | K562 > 100 µM | KM12 > 100 µM | LOX IMVI > 100 µM | MCF7 3.44 µM | MDA-MB-231 > 100 µM | MDA-MB-435 > 100 µM | MDA-N > 100 µM | MOLT-4 > 100 µM | Malme-3M > 100 µM | NCI-H226 > 100 µM | NCI-H23 > 100 µM | NCI-H460 > 100 µM | NCI-H522 > 100 µM | NCI/ADR-RES > 100 µM | OVCAR-3 > 100 µM | OVCAR-4 > 100 µM | OVCAR-5 > 100 µM | OVCAR-8 94.8 µM | PC-3 30.6 µM | RPMI-8226 > 100 µM | RXF 393 > 100 µM | SF-268 > 100 µM | SF-295 95.3 µM | SF-539 > 100 µM | SK-MEL-2 > 100 µM | SK-MEL-5 65 µM | SK-OV-3 > 100 µM | SN12C > 100 µM | SNB-19 > 100 µM | SNB-75 > 100 µM | SR > 100 µM | SW-620 > 100 µM | T47D > 100 µM | TK-10 > 100 µM | U-251 > 100 µM | UACC-257 > 100 µM | UACC-62 64.1 µM | UO-31 > 100 µM

CC(C)(C)OC(=O)CN1CCNCCNCC1
inactive: 786-0 > 100 µM | A498 > 100 µM | A549 > 100 µM | ACHN > 100 µM | BT-549 > 100 µM | CAKI-1 > 100 µM | CCRF-CEM > 100 µM | COLO 205 > 100 µM | DU-145 > 100 µM | EKVX > 100 µM | HCT-116 > 100 µM | HL-60 9.55 µM | HOP-62 > 100 µM | HOP-92 > 100 µM | HT-29 > 100 µM | Hs-578T > 100 µM | IGROV-1 > 100 µM | K562 > 100 µM | KM12 > 100 µM | LOX IMVI > 100 µM | M14 > 100 µM | MCF7 > 100 µM | MDA-MB-231 > 100 µM | MDA-MB-435 > 100 µM | MDA-N > 100 µM | MOLT-4 > 100 µM | Malme-3M > 100 µM | NCI-H226 > 100 µM | NCI-H23 > 100 µM | NCI-H460 > 100 µM | NCI-H522 > 100 µM | NCI/ADR-RES > 100 µM | OVCAR-3 > 100 µM | OVCAR-4 > 100 µM | OVCAR-5 > 100 µM | OVCAR-8 > 100 µM | PC-3 > 100 µM | RPMI-8226 > 100 µM | RXF 393 > 100 µM | SF-268 > 100 µM | SF-295 > 100 µM | SF-539 > 100 µM | SK-MEL-28 > 100 µM | SK-MEL-2 > 100 µM | SK-MEL-5 > 100 µM | SK-OV-3 > 100 µM | SN12C > 100 µM | SNB-19 > 100 µM | SNB-75 > 100 µM | SR > 100 µM | SW-620 > 100 µM | T47D > 100 µM | TK-10 > 100 µM | U-251 > 100 µM | UACC-257 > 100 µM | UACC-62 > 100 µM | UO-31 > 100 µM
> 100 µM: HCT-15

O/N=N/c1ccc2ccccc2n1
inactive: 786-0 > 100 µM | A498 72.9 µM | A549 > 100 µM | ACHN > 100 µM | BT-549 > 100 µM | CAKI-1 > 100 µM | CCRF-CEM > 100 µM | COLO 205 > 10 µM | DU-145 > 100 µM | EKVX 90.2 µM | HCT-116 > 100 µM | HL-60 > 100 µM | HOP-62 > 100 µM | HT-29 > 100 µM | Hs-578T > 100 µM | IGROV-1 > 100 µM | K562 > 100 µM | KM12 > 100 µM | LOX IMVI > 100 µM | M14 > 100 µM | MCF7 > 100 µM | MDA-MB-231 > 100 µM | MDA-MB-435 > 100 µM | MDA-N > 100 µM | MOLT-4 > 100 µM | NCI-H226 > 100 µM | NCI-H23 > 100 µM | NCI-H460 > 100 µM | NCI-H522 > 100 µM | NCI/ADR-RES > 100 µM | OVCAR-3 > 100 µM | OVCAR-4 > 100 µM | OVCAR-5 > 100 µM | OVCAR-8 > 100 µM | PC-3 > 100 µM | RPMI-8226 > 100 µM | SF-268 > 100 µM | SF-295 > 100 µM | SF-539 > 100 µM | SK-MEL-28 > 100 µM | SK-MEL-2 > 100 µM | SK-MEL-5 > 100 µM | SK-OV-3 > 100 µM | SN12C > 100 µM | SNB-19 > 100 µM | SNB-75 75.5 µM | SR > 100 µM | SW-620 > 100 µM | T47D > 100 µM | TK-10 > 100 µM | U-251 > 100 µM | UACC-257 > 100 µM | UACC-62 > 100 µM | UO-31 > 100 µM
> 100 µM: HCT-15
